Experimental data from US7226730B1, “Transgenic animals and cell lines for screening drugs effective for the treatment or prevention of Alzheimer's Disease” (The General Hospital Corporation, priority 1997, dated 2007).

System: CYZ neuronal cells stably transfected with AD7c-NTP
Assay: Crystal Violet viability assay in IPTG-induced AD7c-NTP expressing neuronal cells
Conditions: for effect on cell death (percent change in viability, induced over uninduced) / effect on nitric oxide synthase toxicity attributable to AD7c-NTP expression: CYZ cells induced to express AD7c-NTP, FIG. 12; for cell viability under oxidative stress toxins: LacB and LacF cells, 3 mM IPTG 24 or 48 hrs, toxin 6 or 24 hrs, vs LacA-control, FIGS. 10A and 10B
Procedure: AD7c-NTP was cloned into a Lac-Switch expression vector (Stratgene), and CYZ neuronal cells were stably transformed with the construct. Several cell lines were selected that expressed AD7c-NTP at various levels, Lac A-Lac F, after induction of protein expression with IPTG.
Briefly, 10^4 cells/well were seeded into 96-well plates, and were induced to express AD7c-NTP for a period of 6–18 hrs; additionally, in some experiments, cells were exposed to toxins or protective agents for a similar period of time. At the end the treatment period, cells were fixed, permeabilized and immunostained with the appropriate antibody following the ABS procedure. Quantitation was done by incubating cells with a soluble chromagen, stopping the reaction with 2M H2SO4 and determining chromagen absorbance in an automated ELISA reading machine.
For Experiments determining cell viability, after culture and treatment as for the MICE assay, culture media was replaced with a Crystal Violet/PBS/formalin solution. After staining, cells were rinsed thoroughly and lysed with a PBS/1% SDS solution, and absorbance was determined with an automated ELSA reader. Results were graphed as percent viability.

SMILES	effect on cell death (percent change in viability, induced over uninduced)	cell viability under oxidative stress toxins	effect on nitric oxide synthase toxicity attributable to AD7c-NTP expression
OO [Hydrogen peroxide]	exacerbate cell death	increased hypersensitivity	
COC(=O)[C@@H](N)CCCNC(=N)N[N+](=O)[O-] [L-NAME]			inhibit or reduce
N=C(N)NCCC[C@H](N)C(=O)O [L-arginine]			inhibit or reduce
CCN(CC)C(=S)S [diethyldithiocarbamic acid]	exacerbate cell death	increased hypersensitivity	
